In patent publication US10548864B2, “Enhanced ATRA-related compounds for the treatment of proliferative diseases, autoimmune diseases, and addiction conditions” (Beth Israel Deaconess Medical Center, Inc., priority 2015, dated 2020):

Legend:
[1] = biological target: T1, GST-Pin1 (Homo sapiens, UniProt Q13526); experiment: Fluorescence polarization pTide competition assay (FP-HTS / FP assay)
Source text: Measurements of fluorescence polarization and fluorescence absorbance were made in black 384-well plates (Corning) using a Synergy II plate reader. […] The assay can tolerate up to 10% DMSO.
Molecules that compete with pTide for binding to the active site, e.g., Pin1 substrates, were detected under equilibrium conditions. A Z score was used to identify and rank those molecules that were most competitive with pTide (e.g., that have higher binding affinity). A Z score is defined as Z=(x−μ)/σ, where x is a raw score, μ is the mean of the population, and σ is the standard deviation of the population. Molecules with the most negative Z scores represent those with the highest Pin1 binding affinity. The Z′ value for this assay was around 0.70 and was consistent for day-to-day performance, with a coefficient of variation in the range of 4-5%.

[2] = tested on: NB4 cells; experiment: APL cell differentiation (Giemsa staining, FACS with CD14 and CD11b); type: cell-based, human; settings: 72 hours
Source text: The latter result could be attributed to the stabilization of RAR protein upon Pin1 KD.

[3] = tested on: APL cells from hCG-PML-RARα transgenic mice; settings: APL mouse model
[4] = tested on: human APL NB4 cells; experiment: Immunoblot of Pin1 and PML-RARα in APL NB4 cells; type: cell-based; settings: for PML-RARα level: APL cells; for PML-RARα level / Pin1 degradation: 72 hours
[5] = tested on: human normal and breast cancer cell lines; experiment: Cell growth of human normal and breast cancer cell lines; type: cell-based
Experimental: Absorbance was determined at 570 nm.
To test this possibility, we chose breast cancer as a model due to the substantial oncogenic role of Pin1 in vitro and in vivo.

[6] = tested on: GST-cyclophilin; experiment: Chymotrypsin coupled PPIase activity assay; type: biochemical
Experimental: Compounds were preincubated with enzymes for 0.5 to 2 hours at 4° C. Ki values obtained from PPIase assays are derived from the Cheng-Prusoff equation: [formula] where Km is the Michaelis constant for the used substrate, S is the initial concentration of the substrate in the assay, and the IC50 value is of the inhibitor. Cell Growth Assays

[7] = biological target: T1, GST-Pin1; experiment: Chymotrypsin coupled PPIase activity assay; type: biochemical
Experimental: (§1) Compounds were preincubated with enzymes for 0.5 to 2 hours at 4° C. Ki values obtained from PPIase assays are derived from the Cheng-Prusoff equation:
(§2) [formula] where Km is the Michaelis constant for the used substrate, S is the initial concentration of the substrate in the assay, and the IC50 value is of the inhibitor. Cell Growth Assays

[8] = biological target: GST-FKBP12 (Homo sapiens, UniProt P62942); experiment: Chymotrypsin coupled PPIase activity assay; type: biochemical
Experimental: as §1, §2

[9] = tested on: RAR; experiment: Transactivation of RAR downstream target genes
[10] = in humans; cited from earlier work
[11] = tested on: MDA-MB-231 cells; experiment: MDA-MB-231 xenograft in nude mice
Experimental: Tumor sizes were measured weekly and mice were sacrificed after 7 weeks to collect tumor tissues (37A). […] Pin1 and cyclin D1 in xenograft tumors were assayed by IB (37C).
Tumor sizes were measured weekly and mice were sacrificed after 7 weeks to collect tumor tissues (37G).
Tumor sizes were recorded weekly by a caliber for up to 8 weeks and tumor volumes were calculated using the formula L×W^2×0.52, where L and W represent length and width, respectively.
(§3) In pilot experiments, MDA-MB-231 cells were subcutaneously injected into female nude mice in the flank.

[12] = tested on: cyclin D1 promoter; experiment: Cyclin D1 promoter luciferase activity upon Pin1 overexpression; settings: 72 hours
[13] = tested on: NIH 3T3 cells; experiment: Centrosome amplification induced by Pin1 overexpression; settings: 72 hours
[14] = tested on: MDA-MB-468 cells; experiment: MDA-MB-468 xenograft in nude mice
Experimental: Tumor sizes were measured weekly and mice were sacrificed after 7 weeks to collect tumor tissues (37D). […] Pin1 and cyclin D1 in xenograft tumors were assayed by IB (37F).
as §3

[15] = tested on: human APL NB4 cells; experiment: NB4 cell growth
Experimental: (§4) For cell growth assays described below, cells were seeded in a density of 3000 cells per well in 96-well flat-bottomed plates, and incubated for 24 h in 10% FBS-supplemented DMEM culture medium. […] Control cells received DMSO at a concentration equal to that in drug-treated cells. After 72 hours, the number of cells was counted after trypsin digestion, or medium containing 0.5 mg/ml 3-(4,5-dimethylthiazol-2-yl)-2,5-diphenyl-2H-tetrazolium bromide was added to each well for 2 hours of incubation at 37° C., followed by removal of the media before the addition of 200 μl DMSO. Absorbance was determined at 570 nm.

[16] = tested on: Pin1; experiment: Immunoblot of Pin1 and its substrate oncogenes and tumor suppressors in breast cells
Experimental: For immunoprecipitation and immunoblotting in the examples below, cells were polyethylenimine (PEI)- or lipofemamine-transfected with 8 μg of various plasmids, incubated in 10 cm dishes for 24 hours, and subsequently treatment with drugs as needed. […] After centrifugation at 13,000 g for 10 minutes, one tenth of the supernatant was stored as input, and the remainder was incubated 12 hours with M2 Flag agarose (Sigma). After brief centrifugation, immunoprecipitates were collected, extensively washed with the aforementioned lysis buffer twice, suspended in 2×SDS sample buffer (100 mM Tris-HCl, pH 6.8, 4% SDS, 5% β-mercaptoethanol, 20% glycerol, and 0.1% bromphenol blue), boiled for 10 minutes, and subjected to immunoblotting analysis. […] After electrophoresis, gel was transferred to nitrocellulose membranes using a semidry transfer cell. The transblotted membrane was washed twice with Tris-buffered saline containing 0.1% Tween 20 (TBST). After blocking with TBST containing 5% bovine serum albumin (BSA) for 1 hour, the membrane was incubated with the appropriate primary antibody (diluted 1:1000) in 2% BSA-containing TBST at 4° C. overnight. After incubation with the primary antibody, the membrane was washed three times with TBST for a total of 30 minutes followed by incubation with horseradish peroxidase (HRP)-conjugated goat anti-rabbit or anti-mouse IgG (diluted 1:2500) for 1 hour at room temperature. After three extensive washes with TBST for a total of 30 minutes, the immunoblots were visualized by enhanced chemiluminescence.

[17] = tested on: Pin1 and PML-RARα; experiment: Pin1 and PML-RARα immunostaining in bone marrow of APL patients treated with ATRA
Experimental: Tissue samples were washed with PBS and fixed with 4% paraformaldehyde at room temperature for 20 minutes, followed by permeabilization and blocking with PBS containing 0.1% Triton X-100 and 5% FBS for 1 hour. After another wash with PBS, immunostaining was performed by incubating the cells with mouse anti-Pin1 (1:1000), or rabbit anti-PML (Santa Cruz; 1:100) primary antibodies at 4° C. overnight. Primary antibodies were diluted in PBS containing 0.1% Triton X-100, 0.2% BSA, 0.5 mM PMSF, and 1 mM dithiothreitol. […] Samples were nuclear counterstained with 4,6-diamidino-2-phenylindole (DAPI), mounted and visualized with a LSM510 confocal imaging system.
Bone marrow aspirates were obtained with informed consent from the iliac crest of patients in whom the diagnosis of acute promyelocytic leukemia was suspected based on the morphological evaluation of peripheral blood smear. […] Samples tested positive for the PML/RARα rearrangement by RT-PCR.

[18] = biological target: T2, Pin1 (Mus musculus, UniProt Q9QUR7); experiment: Pin1 level, mRNA and stability in MEFs (immunoblot, RT-PCR, CHX chase); type: cell-based
T2 construct: endogenous in cells; host or cells: mouse embryonic fibroblasts (MEFs)
Experimental: RNA from cells was extracted with the Total RNA isolation mini kit (Agilent). cDNA was prepared with transcriptor first strand cDNA synthesis kit (Roche) and PCR was carried out with iQ SYBR Green Supermix (Bio-Rad). Samples were run on the QIAGEN Rotor-Gene Q real-time cycler. GAPDH was used as an internal control. Analysis was performed with the delta-delta ct method. The following primers were used: […]

[19] = tested on: SKBR3 cells; experiment: Foci formation assay upon Pin1 overexpression
[20] = tested on: mouse embryonic fibroblasts (MEFs); experiment: Cell growth assay in Pin1 WT and Pin1 KO MEFs
Experimental: as §4

[21] = tested on: MRL/lpr lupus prone mice; experiment: MRL/lpr lupus prone mice
[22] = 5 or 10 mg 21 day ATRA-releasing pellets, 1 week after inoculation
[23] = three sensitive cancer cell lines, 72 hours
[24] = after 10 days of ATRA treatment

T1 sequence (Q13526 whole entry): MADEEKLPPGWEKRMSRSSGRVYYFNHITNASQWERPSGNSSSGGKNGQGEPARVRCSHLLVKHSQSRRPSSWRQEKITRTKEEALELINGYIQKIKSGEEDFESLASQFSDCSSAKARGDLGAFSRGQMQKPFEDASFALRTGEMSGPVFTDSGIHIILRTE
T2 sequence (Q9QUR7 whole entry): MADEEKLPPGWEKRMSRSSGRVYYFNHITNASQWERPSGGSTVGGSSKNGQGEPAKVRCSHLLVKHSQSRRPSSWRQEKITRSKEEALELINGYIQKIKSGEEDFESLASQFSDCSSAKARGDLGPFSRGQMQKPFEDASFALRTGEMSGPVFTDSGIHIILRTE
Chain of GST-FKBP12 (P62942 whole entry): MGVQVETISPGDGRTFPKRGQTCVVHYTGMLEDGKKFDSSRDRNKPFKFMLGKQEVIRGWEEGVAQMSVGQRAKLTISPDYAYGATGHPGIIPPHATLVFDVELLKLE

C=C(c1ccc(C(=O)O)cc1)c1cc2c(cc1C)C(C)(C)CCC2(C)C [bexarotene]
Pin1 binding in the FP assay [1]: marginal binding

CC1(C)CCC(C)(C)c2cc(NC(=O)c3ccc(C(=O)O)cc3)ccc21 [tamibarotene]
Pin1 binding in the FP assay [1]: moderate binding

CC1=C(/C=C/C(C)=C/C=C/C(C)=C/C=O)C(C)(C)CCC1 [retinal]
Pin1 binding in the FP assay [1]: totally inactive

COc1cc(C)c(/C=C/C(C)=C/C=C/C(C)=C/C(=O)O)c(C)c1C [acitretin]
Pin1 binding in the FP assay [1]: moderate binding

O=C(O[C@@H]1Cc2c(O)cc(O)cc2O[C@@H]1c1cc(O)c(O)c(O)c1)c1cc(O)c(O)c(O)c1 [EGCG]
APL cell differentiation [2]: neither Pin1 inhibitors nor Pin1 KD induced APL cell differentiation
Condition of treated mice (toxic effects) [3]: rather sick
PML-RARα in the bone marrow [3]: effectively reduced PML-RARα in the bone marrow
Spleen weight [3]: spleen weights nearly at basal levels
PML-RARα level [4]: dose-dependently reduced PML-RARα
Pin1 degradation ([4]; NB4 cells): inhibited Pin1 without degrading it

Clc1cccc(C(c2ccc3[nH]cnc3c2)n2ccnc2)c1 (centres unmarked) [liarazole]
Inhibition of cell proliferation in combination with ATRA ([5]; AU565 or SKBR3 cells, cytochrome P450 inhibitor plus ATRA): generally additive effects

CC1=C(/C=C/C(C)=C/C=C/C(C)=C\C(=O)O)C(C)(C)CCC1 [Compound 13cRA, 13-cis-retinoic acid]
Inhibition of cyclophilin [6]: did not inhibit
Z score in FP-HTS ([1]; ~8200 compounds screened): lowest Z score
Inhibition of the PPIase activity of Pin1 [7]: fully inhibited
Inhibition of FKBP12 [8]: did not inhibit

CC(=O)OC/C=C(C)/C=C/C=C(C)/C=C/C1=C(C)CCCC1(C)C [retinyl acetate]
Pin1 binding in the FP assay [1]: totally inactive

O=C(O)Cc1c[nH]c2ccccc12 [indo-3-acetic acid]
Pin1 binding in the FP assay [1]: neither pravastatin nor indo-3-acetic acid demonstrated any binding

CC1=C(/C=C/C(C)=C/C=C/C(C)=C/C(=O)O)C(C)(C)CCC1 [ATRA, all-trans retinoic acid]
Transactivation of RAR downstream target genes (RARβ, TGM2) [9]: effectively and significantly induces transactivation
Half-life [10]: ~45 min
Inhibition of cyclophilin [6]: did not inhibit
Tumor growth [11, 22]: potently and dose-dependently inhibited tumor growth
Endogenous and exogenous Pin1 and cyclin D1 in tumors of Pin1-expressing MDA-MB-231 cells ([11]; ATRA implants): dose-dependently reduced both endogenous and exogenous Pin1, and cyclin D1
Tumor growth, MDA-MB-231 cells stably expressing Pin1 ([11]; ATRA implants): effectively inhibited by ATRA in a dose-dependent manner
Pin1 and cyclin D1 in tumors ([11]; ATRA-releasing pellets): reduced both Pin1 and its substrate cyclin D1
Antitumor activity ([11]; intraperitoneally 3 times a week for 8 weeks (12.5 mg/kg)): only modest antitumor activity
Activation of the cyclin D1 promoter by Pin1 overexpression [12]: dose-dependently and fully inhibited
Centrosome amplification induced by Pin1 overexpression [13]: dose-dependently and fully inhibited
PML-RARα in the bone marrow [3]: effectively reduced PML-RARα in the bone marrow
Pin1 levels in the bone marrow [3]: reduced Pin1 levels in the bone marrow
Spleen weight [3]: spleen weights nearly at basal levels
Tumor growth [14, 22]: potently and dose-dependently inhibited tumor growth
Pin1 and cyclin D1 in tumors ([14]; ATRA-releasing pellets): reduced both Pin1 and its substrate cyclin D1
Inhibition of the PPIase activity of Pin1 [7]: fully inhibited
Inhibition of FKBP12 [8]: did not inhibit
NB4 cell proliferation [15]: suppressed
Effects on Pin1 and substrate proteins in normal MCF10A cells ([16]; MCF10A cells): no appreciable effects
Protein levels of Pin1 and its substrate oncogenes (cyclin D1, HER2, ERa, Akt, NFκB/p65, c-Jun, PKM2) [16, 23]: dose-dependent protein reduction
Protein levels of Pin1 substrate tumor suppressors (Smad2/3, SMRT) [16, 23]: protein induction
PML-RARα level in bone marrow of APL patients ([17]; after 3 days of ATRA treatment): ~40%
Pin1 level in bone marrow of APL patients ([17]; after 3 days of ATRA treatment): ~40%
PML-RARα level in bone marrow of APL patients [17, 24]: < 10%
Pin1 level in bone marrow of APL patients [17, 24]: < 10%
Pin1 protein level ([18]; MEFs, immunoblot): dose-dependently down-regulated Pin1
Pin1 mRNA levels ([18]; MEFs, quantitative RT-PCR): no obvious effects
Degradation of PML-RARα and Pin1 ([18]; RARα, β, and γ triple KO MEFs): induced degradation of PML-RARα and Pin1 similar to that for WT controls
Cell growth, malignant breast cancer cells ([5]; 72 hours): differential susceptibility
Cell growth, non-transformed MCF10A and HMLE cells ([5]; 72 hours): highly resistant
Foci formation enhanced by Pin1 overexpression [19]: dose-dependently and fully inhibited
Inhibition of growth of Pin1 WT MEFs ([20]; Pin1 WT MEFs): relatively high concentrations of ATRA were required
Inhibition of growth of Pin1 KO MEFs ([20]; Pin1 knockout (KO) cells): much more resistant
Visual lupus-related phenotypes (fur loss, skin inflammation, lymphoid hyperplasia) ([21]; 5 mg ATRA for 8 weeks from 8 weeks of age): drastically suppressed visual lupus-related phenotypes in all six treated mice
Size of spleen and lymph node ([21]; 14 week-old ATRA-treated mouse): normal size
Glomerular deposition of IgG, C3, and CD68 ([21]; mouse, in vivo): potently inhibited
Hyperkeratinosis ([21]; mouse, in vivo): potently inhibited
PML-RARα level [4]: dose-dependently reduced PML-RARα
Pin1 and PML-RARα expression ([4]; NB4 cells, 10 μM for 96 hours): reduced Pin1 and PML-RARα expression

CCOC(=O)CN1C(=O)c2ccc3c4c(ccc(c24)C1=O)C(=O)N(CC(=O)OCC)C3=O [PiB]
APL cell differentiation [2]: neither Pin1 inhibitors nor Pin1 KD induced APL cell differentiation
PML-RARα level [4]: dose-dependently reduced PML-RARα
Pin1 degradation ([4]; NB4 cells): inhibited Pin1 without degrading it

CC1=C(/C=C/C(C)=C/C=C/C(C)=C/CO)C(C)(C)CCC1 [retinol]
Pin1 binding in the FP assay [1]: totally inactive

CCCCCCCOc1cc2c(cc1/C(C)=C/c1ccc(C(=O)O)cc1)C(C)(C)CCS2(=O)=O [Ro-415253]
Transactivation of RAR downstream target genes (RARβ, TGM2) [9]: suppresses it
Pin1 binding in the FP assay [1]: minimal Pin1 binding
